Reference: patent US11319283B2, “Substituted cyclobutylbenzene compounds as indoleamine 2,3-dioxygenase (IDO) inhibitors” (MERCK SHARP & DOHME CORP., priority 2017, dated 2022)

What was measured:
Type in all cases: cell-based
IDO1 [1] = biological target: T1, IDO1 (Homo sapiens, UniProt P14902); assay: IDO1 Cellular Assay in Hela Cells Stimulated with IFNγ; parameters: endogenous in cells; host or cells: HeLa cells stimulated with IFNγ (100 ng/mL); conditions: Hela cells stimulated with IFNγ 100 ng/mL, 300 uM L-tryptophan, about 48 hours, fluorescence readout
T1 sequence (P14902 whole entry): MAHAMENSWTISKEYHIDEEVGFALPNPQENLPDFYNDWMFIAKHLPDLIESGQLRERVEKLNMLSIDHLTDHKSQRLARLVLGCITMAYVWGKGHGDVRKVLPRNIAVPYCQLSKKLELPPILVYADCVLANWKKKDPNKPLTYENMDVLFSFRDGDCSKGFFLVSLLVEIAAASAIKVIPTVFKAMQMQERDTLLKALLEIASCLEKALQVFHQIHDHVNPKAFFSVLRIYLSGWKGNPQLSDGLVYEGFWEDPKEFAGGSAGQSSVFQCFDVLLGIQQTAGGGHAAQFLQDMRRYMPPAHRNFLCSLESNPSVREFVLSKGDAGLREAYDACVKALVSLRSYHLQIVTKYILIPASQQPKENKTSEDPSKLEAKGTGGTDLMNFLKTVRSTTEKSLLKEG
Procedure, shortened: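 HeLa cells with 300 uM L-tryptophan, IFNγ-stimulated (unstimulated cells as max-effect control), exposed to compound (ten 3-fold dilutions) for about 48 h at 37 °C. IC50 by four-parameter logistic fit.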

TDO = biological target: T2, TDO (Homo sapiens, UniProt P48775); assay: TDO Cellular Assay in Frozen SW48 Cells; conditions: 300 uM L-tryptophan, about 48 hours, fluorescence readout
T2 construct: endogenous in cells; host or cells: SW48 cells (A2780 cells as control with minimal TDO activity)
T2 sequence (P48775 whole entry): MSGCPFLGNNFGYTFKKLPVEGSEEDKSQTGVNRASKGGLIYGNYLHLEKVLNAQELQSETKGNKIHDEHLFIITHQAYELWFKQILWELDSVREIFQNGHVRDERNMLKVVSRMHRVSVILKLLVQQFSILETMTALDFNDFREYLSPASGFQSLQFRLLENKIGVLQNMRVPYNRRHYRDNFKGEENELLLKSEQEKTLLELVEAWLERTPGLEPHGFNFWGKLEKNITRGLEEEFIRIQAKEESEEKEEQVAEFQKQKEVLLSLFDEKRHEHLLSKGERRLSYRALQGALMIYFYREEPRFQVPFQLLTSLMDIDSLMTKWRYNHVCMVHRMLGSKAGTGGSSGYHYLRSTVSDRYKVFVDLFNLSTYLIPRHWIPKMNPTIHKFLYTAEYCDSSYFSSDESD
Procedure, shortened: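 SW48 cells in RPMI with 300 uM L-tryptophan were incubated ~48 h at 37° C with compounds in ten 3-fold dilutions. Signal was corrected for A2780 background and normalised to DMSO-only SW48 wells, with IC50 from a four-parameter logistic fit.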

IDO1 [2] = biological target: T1, IDO1; assay: IDO1 HEK293 Cellular Assay; conditions: HEK293 cells transfected with Flag-IDO1 vector, 20-24 hours, fluorescence readout
Procedure: IDO1 HEK293 Cellular Assay
Compounds to be tested were serially diluted in ten 3-fold steps in DMSO starting from 10 mM DMSO stocks. Compound dilutions or DMSO alone were then dispensed from the dilution plate into a Greiner black 384-well assay plate (catalog #781086) using an Echo 550 acoustic liquid handler (Labcyte).
HEK293 cell pellets were resuspended to 5×10^5 cells/mL in complete HEK293 culture media (89% DMEM, 10% FBS, 1% penicillin/streptomycin). Suspended cells (2 mL) were dispensed into each well of a 6-well Corning plate (Catalog #3516). Cells were allowed to attach and were incubated for 20 hours at 37° C. in a 5% CO2 incubator. Flag-IDO1 vector (Genscript True ORF Gold, 2 ug) in 150 uL of Opti-MEM medium was added to each well of a Corning 24 well plate (Cat #3527) and incubated for 5 minutes at room temperature. To each well of the 24-well plate was added […] Lipofectamine 2000 (Gibco) and the plate incubated at room temperature for 20-30 minutes. To each well of attached cells in the 6-well plate, […] of the transfection mix from the 24-well plate was gently added to each well and IDO1 protein was allowed to express for 24-30 hours at 37 degrees Celsius in a 5% CO2 incubator.
Media was removed from the cells which were then washed with 2 mL Dulbecco's phosphate-buffered saline (DPBS). After removal of DPBS, 0.5 mL of TrypLE (Gibco) was added and incubated at 5 minutes until cells lift from the surface of the wells. Complete HEK293 culture media (4 mL) was added to each well and cells were collected and pooled into a conical tube. Cells were pelleted at 200×g for 5 minutes and resuspended in an equal volume of complete DMEM medium. Cells were diluted to 4×10^5 cells per mL in complete HEK293 media. L-Tryptophan was added to give a final concentration of […]. The diluted transfected cells […] or nontransfected cells […] were dispensed into wells of Greiner black 384-well assay plates (catalog #781086) containing previously diluted compounds. The plate is briefly mixed and centrifuged at 200×g for 10 seconds to collect cells at the bottom of the plate. Plates were covered and incubated for 20-24 hours at 37 degrees C. in a 5% CO2 incubator. Afterwards […] of 0.5 M methyl isonipecotate in dimethyl sulfoxide was added to each well, mixed, sealed, and centrifuged at 500 rpm for 10 seconds. Plates were incubated at 37 degrees in a 5% CO2 incubator overnight to develop fluoresence. The plates are allowed to cool and then centrifuged for 1 minute at 1000×g. The resulting fluoresence was measured in an Envision plate reader (Perkin Elmer) with a 400/25 nm excitation filter and an 510/20 nm emission filter.
The fluoresence intensity of each well was corrected for the background observed in wells with untransfected cells and was expressed as a fraction of the intensity observed in wells of IDO1 transfected cells and DMSO only. Potencies were calculated by linear least squares fit to the four parameter logistic IC50 equation.

IC50 (IDO1 [1]): 92 nM
IC50 (TDO): ≥ 10000 nM
IC50 (IDO1 [2]): 92 nM
Compound: O=C(Nc1ccc(C2(NC(=O)c3cncnc3)CCC2)cc1)c1cccc(Cl)c1 [Example 18, N-(1-{4-[(3-chlorobenzene-1-carbonyl)amino]phenyl}cyclobutyl)pyrimidine-5-carboxamide]
